From patent US7833795B2, “Assessment of cardiovascular risk using isoprostane biomarkers and COX-2 selective inhibitors” (The Trustees of the University of Pennsylvania, priority 2004, dated 2010)

How the values were obtained:
Assay type in all cases: in vivo, rat
Male Fisher 344 rats [1] = experiment: Plasma methionine sulfoxidation
Protocol: (§1) Animals and treatment protocol: Male Fisher 344 rats (260-280 g) obtained from Charles River Laboratories (Raleigh, N.C.) were used in all experiments. The animals were housed three to a cage. Autoclaved hardwood bedding was used in solid-bottom polycarbonate cages with filter tops. Animal rooms were maintained at 20-25° C. with 35-70% relative humidity with alternating 12-hour light and dark cycles. The rats had free access to deionized, reverse-osmosis-treated water and received autoclaved NIH 31 rodent chow (Zeigler Bros., Gardners, Pa.) ad libitum. For all experiments, rats were fasted overnight and then administered intraperitoneal injections of carbon tetrachloride in canola oil. Control rats received an equal volume of canola oil. Fasting continued throughout the experiment. Rats were anesthetized with Nembutal (0.1 ml/100 g body weight) and 5 ml blood was removed from the dorsal aorta proximal to its bifurcation into the common iliac arteries.
(§2) Carbon tetrachloride (CCL4) treatment: Animals from each of the three dose groups (Control-canola oil, 120 mg/kg CCl4 i.p. and 1200 mg/kg CCl4 i.p.) were investigated at three time points (2, 7, and 16 hours after CCl4 injection). Indomethacin-pretreated rats were also investigated at the same three time points, and the meclofenamic acid-pretreated rats were investigated at one time point (7 hours). Each group consisted of five rats for each analysis, except the meclofenamic acid pretreatment group which consisted of six rats. Animal treatment, sample preparation, assessment of liver histology and serum enzyme activities are described elsewhere (Kadiiska et al., 2000, Free Radic. Biol. Med. 28: 838-845; Jackson, 1989, J. Pharmacol. Exp. Ther. 250: 9-21) and were carried out at NIEHS, Research Triangle Park, N.C.
Plasma sample preparation: Blood (5 ml) was drawn through single draw Vacutainer® needles (21 Gauge) into open Vacutainer® blood collection tubes containing heparin. The tubes were gently inverted 2-3 times for mixing and immediately placed on ice. Blood was centrifuged (2,000 rpm for 10 minutes at 4° C.) no more than 30 minutes after collection, and the plasma was collected, frozen on dry ice and stored at −70° C.
Methionine sulfoxidation was measured according to Levine et al. (1996, Proc. Natl. Acad. Sci. USA 93: 15036-15040). In brief, serum samples were hydrolyzed with HCl. The methionine sulfoxide residue was converted to methionine, which represents the methionine sulfoxide level in the protein. The samples were analyzed on a Beckman Model 7300 amino acid analyzer. The methionine concentrations were measured at Weill Medical College of Cornell University, New York, N.Y., USA.

Male Fisher 344 rats [2] = experiment: Urinary 8-OHdG by immunoassay; details: for 8-OHdG (by immunoassay): urine
Protocol: as §1, §2
Urine sample preparation: The day prior to treatment, both experimental and control animals were placed in stainless steel metabolic cages especially designed for urine collection. For Experimental Example 2, animals were placed in metabolic cages immediately after the last injection of indomethacin or meclofenamic acid. Urine was collected (in dark vials) from the animals during the following intervals: 2 to 7 hours and 7 to 16 hours after CCl4 or canola oil (controls) treatment. Urine samples from indomethacin-pretreated rats were collected from 2 to 7 hours and 7 to 16 hours after the injection of CCl4, whereas samples from meclofenamic-acid-pretreated rats were collected only from 2 to 7 hours after the injection. All urine samples were immediately frozen on dry ice and stored at −70° C.
8-Hydroxy-2′-deoxyguanosine (8-OHdG) was measured using an immunoassay. In brief, 8-OHdG was determined using a microtiter ELISA method where the test analyte competed with monoclonal antibody against 8-OHdG for 8-OHdG bound to the plate. After incubation and washing, an anti-mouse second antibody conjugated to horseradish peroxidase was used to determine the bound monoclonal antibody. The color yield is […] to the analyte concentration. Data reduction was by 4-parameter logistic curve fit. The assay was developed and measurements were performed by Oxis Research, Portland, Oreg.

Male Fisher 344 rats [3] = experiment: Plasma MDA, Bioxytech LPO-586 colorimetric assay; details: both CCl4 doses
Protocol: as §1, with “arteries. […]” for “arteries.”
Two colorimetric-based assays, using third derivative spectroscopy, were also used to measure MDA in plasma. […] One molecule of free MDA combines with 2 molecules of the chromogenic agent to produce a stable chromophore with a maximal absorbance at 586 nm. In both assays, the concentration of MDA was determined with 3rd derivative spectroscopy. […]

Male Fisher 344 rats [4] = experiment: Comet assay of blood leucocyte DNA; details: CCl4 120 and 1200 mg/kg; 2, 7, 16 h
Protocol: as §1
Carbon tetrachloride (CCL4) treatment: Animals from each of the three dose groups (Control-canola oil, 120 mg/kg CCl4 i.p. and 1200 mg/kg CCl4 i.p.) were investigated at three time points (2, 7, and 16 hours after CCl4 injection). Indomethacin-pretreated rats were also investigated at the same three time points, and the meclofenamic acid-pretreated rats were investigated at one time point (7 hours). […]

Compound: ClC(Cl)(Cl)Cl [CCl4, Carbon tetrachloride]
- Methionine sulfoxide (Male Fisher 344 rats [1]; CCl4 120 mg/kg i.p., 2 h): 2.3 % of total methionine
- Methionine sulfoxide (Male Fisher 344 rats [1]; CCl4 120 mg/kg i.p., 7 h): 1.7 % of total methionine
- Methionine sulfoxide (Male Fisher 344 rats [1]; CCl4 120 mg/kg i.p., 16 h): 3.1 % of total methionine
- Methionine sulfoxide (Male Fisher 344 rats [1]; CCl4 1200 mg/kg i.p., 2 h): 1.8 % of total methionine
- Methionine sulfoxide (Male Fisher 344 rats [1]; CCl4 1200 mg/kg i.p., 7 h): 1.1 % of total methionine
- Methionine sulfoxide (Male Fisher 344 rats [1]; CCl4 1200 mg/kg i.p., 16 h): 1.7 % of total methionine
- 8-OHdG (by immunoassay) (Male Fisher 344 rats [2]; CCl4 120 mg/kg i.p., 7 h): 42 ng/mg creatinine
- 8-OHdG (by immunoassay) (Male Fisher 344 rats [2]; CCl4 120 mg/kg i.p., 16 h): 83 ng/mg creatinine
- 8-OHdG (by immunoassay) (Male Fisher 344 rats [2]; CCl4 1200 mg/kg i.p., 7 h): 165 ng/mg creatinine
- 8-OHdG (by immunoassay) (Male Fisher 344 rats [2]; CCl4 1200 mg/kg i.p., 16 h): 60 ng/mg creatinine
- increase of urinary 8-OHdG (Male Fisher 344 rats [2]; high dose CCl4, 7 h): 7 fold
- increase of urinary 8-OHdG (Male Fisher 344 rats [2]; high dose CCl4, 16 h): 3 fold
- plasma MDA with LPO-586 reagents, 3rd derivative analysis (Male Fisher 344 rats [3]): significant increase was found only for the early time points
- Comet assay: % migrated DNA, tail length, tail moment (Male Fisher 344 rats [4]): statistically significant increase only at the low dose of CCl4 at 16 hours
